Data taken from patent US7618816B2, “Metal-binding therapeutic peptides” (Ontherix, Inc., priority 2005, dated 2009).
Where no end group is shown, it is not given here.

Tests used:
HS 913T = assay: Uptake of SA-HRP::MBD peptide complexes; type: cell-based, human
Description: (§1) HEK293 kidney cell line and 54 tumor cell lines obtained from the National Cancer Institute and passaged in RPMI1640 cell culture medium supplemented with 10% fetal bovine serum and 10 uM FeCl2. Uptake of streptavidin-horseradish peroxidase (SA-HRP) conjugate and of various SA-HRP::MBD peptide complexes was determined as described (Singh et al. J Biol Chem. 279 (1):477-87 [2004]) using biotinylated MBD9 ([…]) (SEQ ID NO: 10) and MBD21 ([…]) (SEQ ID NO: 4) peptides and SA-HRP. Nuclear and cytoplasmic localization of these proteins was also determined in each case. […] In order to establish the underlying molecular mechanism for this variability, we cross-linked MBD21 peptide to the following cell surface markers at 4 degrees Celsius as previously described (Singh et al. J Biol Chem. 279 (1):477-87 [2004]): transferrin receptor 1, caveolin 1, PCNA, integrins alpha v, 2, 5 and 6, integrins beta 1, 3 and 5. […] Based on the strength of these correlations, it was possible to derive crude predictive formulae for MBD-mediated uptake based on the rate of cross-linking to surface markers. Such predictive formulas could form the basis for a diagnostic procedure to select appropriate targets for MBD-based therapies.

MX-1 = assay: Uptake of SA-HRP::MBD peptide complexes; type: cell-based, human
Description: as §1

COLO 205 = assay: Uptake of SA-HRP::MBD peptide complexes; type: cell-based, human
Description: as §1

MCF 7 = assay: Uptake of SA-HRP::MBD peptide complexes; type: cell-based, human
Description: as §1

WIDR = assay: Uptake of SA-HRP::MBD peptide complexes; type: cell-based, human
Description: as §1

SK-0V-3 = assay: Uptake of SA-HRP::MBD peptide complexes; type: cell-based, human
Description: as §1

RPMI 8226 = assay: Uptake of SA-HRP::MBD peptide complexes; type: cell-based, human
Description: as §1

MOLT4 = assay: Uptake of SA-HRP::MBD peptide complexes; type: cell-based, human
Description: as §1

Lewis Lung = assay: Uptake of SA-HRP::MBD peptide complexes; type: cell-based, human
Description: as §1

HOP 18 = assay: Uptake of SA-HRP::MBD peptide complexes; type: cell-based, human
Description: as §1

BT-549 = assay: Uptake of SA-HRP::MBD peptide complexes; type: cell-based, human
Description: as §1

NCI-H226 = assay: Uptake of SA-HRP::MBD peptide complexes; type: cell-based, human
Description: as §1

A498 = assay: Uptake of SA-HRP::MBD peptide complexes; type: cell-based, human
Description: as §1

NHI-H322M = assay: Uptake of SA-HRP::MBD peptide complexes; type: cell-based, human
Description: as §1

SW-620 = assay: Uptake of SA-HRP::MBD peptide complexes; type: cell-based, human
Description: as §1

EKVX = assay: Uptake of SA-HRP::MBD peptide complexes; type: cell-based, human
Description: as §1

OVCAR-4 = assay: Uptake of SA-HRP::MBD peptide complexes; type: cell-based, human
Description: as §1

OVCAR-5 = assay: Uptake of SA-HRP::MBD peptide complexes; type: cell-based, human
Description: as §1

ACHN = assay: Uptake of SA-HRP::MBD peptide complexes; type: cell-based, human
Description: as §1

CAKI-1 = assay: Uptake of SA-HRP::MBD peptide complexes; type: cell-based, human
Description: as §1

SN12C = assay: Uptake of SA-HRP::MBD peptide complexes; type: cell-based, human
Description: as §1

HOP 92 = assay: Uptake of SA-HRP::MBD peptide complexes; type: cell-based, human
Description: as §1

HCT-15 = assay: Uptake of SA-HRP::MBD peptide complexes; type: cell-based, human
Description: as §1

NCI-H522 = assay: Uptake of SA-HRP::MBD peptide complexes; type: cell-based, human
Description: as §1

UO-31 = assay: Uptake of SA-HRP::MBD peptide complexes; type: cell-based, human
Description: as §1

TK-10 = assay: Uptake of SA-HRP::MBD peptide complexes; type: cell-based, human
Description: as §1

786-O = assay: Uptake of SA-HRP::MBD peptide complexes; type: cell-based, human
Description: as §1

A549 = assay: Uptake of SA-HRP::MBD peptide complexes; type: cell-based, human
Description: as §1

CHA-59 = assay: Uptake of SA-HRP::MBD peptide complexes; type: cell-based, human
Description: as §1

DU-145 = assay: Uptake of SA-HRP::MBD peptide complexes; type: cell-based, human
Description: as §1

KM12 = assay: Uptake of SA-HRP::MBD peptide complexes; type: cell-based, human
Description: as §1

54 tumor cell lines = assay: Uptake of SA-HRP::MBD peptide complexes, median of the survey; type: cell-based; settings: median over tumor cell lines
Description: as §1

Sequence: KKGFYKKKQCRPSKGRKRGFCWAVDKYG (cysteine pairing not given here; also: biotinylated (position not given here), complexed with SA-HRP) [MBD21]
- SA-HRP uptake, Cyt. (HS 913T; cytoplasmic): 2.1 ng
- SA-HRP uptake, Nuc. (HS 913T; nuclear): 1.8 ng
- SA-HRP uptake, Cyt. (MX-1; MX-1, cytoplasmic): 8.5 ng
- SA-HRP uptake, Nuc. (MX-1; MX-1, nuclear): 3.8 ng
- SA-HRP uptake, Cyt. (COLO 205; COLO 205, cytoplasmic): 2.1 ng
- SA-HRP uptake, Nuc. (COLO 205; COLO 205, nuclear): 0.9 ng
- SA-HRP uptake, Cyt. (MCF 7; MCF 7, cytoplasmic): 11.1 ng
- SA-HRP uptake, Nuc. (MCF 7; MCF 7, nuclear): 5.8 ng
- SA-HRP uptake, Cyt. (WIDR; cytoplasmic): 2.8 ng
- SA-HRP uptake, Nuc. (WIDR; nuclear): 1.0 ng
- SA-HRP uptake, Cyt. (SK-0V-3; SK-0V-3, cytoplasmic): <0.04 ng
- SA-HRP uptake, Nuc. (SK-0V-3; SK-0V-3, nuclear): <0.04 ng
- SA-HRP uptake, Cyt. (RPMI 8226; RPMI 8226, cytoplasmic): 3.6 ng
- SA-HRP uptake, Nuc. (RPMI 8226; RPMI 8226, nuclear): 0.0 ng
- SA-HRP uptake, Cyt. (MOLT4; MOLT4, cytoplasmic): 7.3 ng
- SA-HRP uptake, Nuc. (MOLT4; MOLT4, nuclear): 0.0 ng
- SA-HRP uptake, Cyt. (Lewis Lung; cytoplasmic): 6.4 ng
- SA-HRP uptake, Nuc. (Lewis Lung; nuclear): 3.4 ng
- SA-HRP uptake, Cyt. (HOP 18; HOP 18, cytoplasmic): 10.3 ng
- SA-HRP uptake, Nuc. (HOP 18; HOP 18, nuclear): 3.1 ng
- SA-HRP uptake, Cyt. (BT-549; BT-549, cytoplasmic): 4.8 ng
- SA-HRP uptake, Nuc. (BT-549; BT-549, nuclear): 3.3 ng
- SA-HRP uptake, Cyt. (NCI-H226; NCI-H226, cytoplasmic): 0.7 ng
- SA-HRP uptake, Nuc. (NCI-H226; NCI-H226, nuclear): 0.9 ng
- SA-HRP uptake, Cyt. (A498; A498, cytoplasmic): 35.3 ng
- SA-HRP uptake, Nuc. (A498; A498, nuclear): 33.4 ng
- SA-HRP uptake, Cyt. (NHI-H322M; cytoplasmic): 6.0 ng
- SA-HRP uptake, Nuc. (NHI-H322M; nuclear): 8.3 ng
- SA-HRP uptake, Cyt. (SW-620; SW-620, cytoplasmic): 6.3 ng
- SA-HRP uptake, Nuc. (SW-620; SW-620, nuclear): 2.3 ng
- SA-HRP uptake, Cyt. (EKVX; cytoplasmic): 7.7 ng
- SA-HRP uptake, Nuc. (EKVX; nuclear): 7.3 ng
- SA-HRP uptake, Cyt. (OVCAR-4; OVCAR-4, cytoplasmic): 6.1 ng
- SA-HRP uptake, Nuc. (OVCAR-4; OVCAR-4, nuclear): 1.3 ng
- SA-HRP uptake, Cyt. (OVCAR-5; OVCAR-5, cytoplasmic): 1.3 ng
- SA-HRP uptake, Nuc. (OVCAR-5; OVCAR-5, nuclear): 1.5 ng
- SA-HRP uptake, Cyt. (ACHN; cytoplasmic): 8.0 ng
- SA-HRP uptake, Nuc. (ACHN; nuclear): 3.1 ng
- SA-HRP uptake, Cyt. (CAKI-1; CAKI-1, cytoplasmic): 2.8 ng
- SA-HRP uptake, Nuc. (CAKI-1; CAKI-1, nuclear): 1.0 ng
- SA-HRP uptake, Cyt. (SN12C; cytoplasmic): 6.7 ng
- SA-HRP uptake, Nuc. (SN12C; nuclear): 6.4 ng
- SA-HRP uptake, Cyt. (HOP 92; HOP 92, cytoplasmic): 1.5 ng
- SA-HRP uptake, Nuc. (HOP 92; HOP 92, nuclear): 1.6 ng
- SA-HRP uptake, Cyt. (HCT-15; HCT-15, cytoplasmic): 2.7 ng
- SA-HRP uptake, Nuc. (HCT-15; HCT-15, nuclear): 0.7 ng
- SA-HRP uptake, Cyt. (NCI-H522; NCI-H522, cytoplasmic): 5.1 ng
- SA-HRP uptake, Nuc. (NCI-H522; NCI-H522, nuclear): 1.7 ng
- SA-HRP uptake, Cyt. (UO-31; UO-31, cytoplasmic): 1.3 ng
- SA-HRP uptake, Nuc. (UO-31; UO-31, nuclear): 3.3 ng
- SA-HRP uptake, Cyt. (TK-10; TK-10, cytoplasmic): 5.0 ng
- SA-HRP uptake, Nuc. (TK-10; TK-10, nuclear): 2.2 ng
- SA-HRP uptake, Cyt. (786-O; cytoplasmic): 1.8 ng
- SA-HRP uptake, Nuc. (786-O; nuclear): 4.8 ng
- SA-HRP uptake, Cyt. (A549; A549, cytoplasmic): 4.4 ng
- SA-HRP uptake, Nuc. (A549; A549, nuclear): 1.3 ng
- SA-HRP uptake, Cyt. (CHA-59; CHA-59, cytoplasmic): 8.2 ng
- SA-HRP uptake, Nuc. (CHA-59; CHA-59, nuclear): 2.1 ng
- SA-HRP uptake, Cyt. (DU-145; DU-145, cytoplasmic): 25.7 ng
- SA-HRP uptake, Nuc. (DU-145; DU-145, nuclear): 3.3 ng
- SA-HRP uptake, Cyt. (KM12; KM12, cytoplasmic): 2.1 ng
- SA-HRP uptake, Nuc. (KM12; KM12, nuclear): 0.7 ng
- SA-HRP uptake, Cyt. (ng), Median (54 tumor cell lines; cytoplasmic): 2.8 ng
- SA-HRP uptake, Nuc. (ng), Median (54 tumor cell lines; nuclear): 1.0 ng
